{
  "source": "patent US20110028405A1",
  "about": "“SULFAMIDES AS ZAP-70 INHIBITORS” (priority 2007, published 2011)",
  "key": {"ZAP-70": {"target": "T1, ZAP-70 (Homo sapiens, UniProt P43403)", "T1 construct": "endogenous in cells; host or cells: cell lysate", "T1 sequence (P43403 1-619)": "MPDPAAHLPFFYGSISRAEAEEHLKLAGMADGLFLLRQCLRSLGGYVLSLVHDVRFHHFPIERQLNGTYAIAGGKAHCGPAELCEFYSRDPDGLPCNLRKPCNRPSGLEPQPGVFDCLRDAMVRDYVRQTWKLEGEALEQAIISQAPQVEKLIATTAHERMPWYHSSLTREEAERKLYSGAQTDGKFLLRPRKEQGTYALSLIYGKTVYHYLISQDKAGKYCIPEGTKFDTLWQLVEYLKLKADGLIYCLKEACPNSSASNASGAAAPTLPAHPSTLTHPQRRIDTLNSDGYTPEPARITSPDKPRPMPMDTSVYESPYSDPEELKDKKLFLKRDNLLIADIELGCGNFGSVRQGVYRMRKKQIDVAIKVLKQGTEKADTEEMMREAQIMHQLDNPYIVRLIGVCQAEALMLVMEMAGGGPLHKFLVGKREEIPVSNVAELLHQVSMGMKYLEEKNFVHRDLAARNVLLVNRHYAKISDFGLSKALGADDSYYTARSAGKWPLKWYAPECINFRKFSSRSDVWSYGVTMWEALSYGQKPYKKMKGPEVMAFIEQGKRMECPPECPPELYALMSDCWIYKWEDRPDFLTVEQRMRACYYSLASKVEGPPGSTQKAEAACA", "assay": "ZAP-70 kinobeads assay", "format": "binding", "details": "cell lysate, dot blot detection", "procedure": "The compounds of the present invention as described in the previous examples can be tested in the ZAP-70 kinobeads assay as described (EP-A 1862802 and WO-A 2007/137867). Briefly, test compounds (at various concentrations) and the affinity matrix with the immobilized aminopyrido-pyrimidine ligand 24 are added to cell lysate aliquots and allowed to bind to the proteins in the lysate sample. After the incubation time the beads with captured proteins are separated from the lysate. Bound proteins are then eluted and the presence ZAP-70 is detected and quantified using a specific antibody in a dot blot procedure and the Odyssey infrared detection system."}, "Jurkat cells": {"tested_on": "Jurkat cells", "assay": "Calcium release assay (Fluo-4, flow cytometry, anti-CD3 stimulation)", "format": "cell-based", "details": "Homo sapiens; intracellular Ca2+ release in Jurkat cells after anti-CD3 activation", "procedure": "Compounds of the present invention were tested in a Calcium release assay as described below.\nThe development of fluorescent probes makes it possible to measure the concentration of intracellular free Calcium ions in single living cells. Cells are first loaded with a cell-permeable Ca^2+-sensitive dye, then the test compound is added. Finally, cells are activated through the T cell receptor with an anti-CD3 antibody shortly before data acquisition on the flow cytometer. The release of Ca^2+ is measured as a function of time after cell stimulation. This protocol describes the flow cytometry method using the Fluo-3 and Fluo-4 dyes (Minta et al., 1989, J. Biol. Chem. 264(14):8171-8178) to measure the intracellular Ca^2+ concentration in Jurkat cells (see also June et al., 1997, Measurement of intracellular calcium ions by flow cytometry. In: Current Protocols in Cytometry (1997) Unit 9.8.1-9.8.19, John Wiley & Sons, Inc.).\n1) Prepare a work plan indicating the number of samples to be analyzed including controls. 2) Cell harvest: Centrifuge 50 to 100 ml of a Jurkat cell culture for 5 minutes at 1100 rpm. Discard the supernatant, pool the resuspended cell pellets in a single 50 ml Falcon tube, and fill up to 50 ml with PBS-CaCl2 (without FCS). Centrifuge again sample again. 3) Resuspend cell pellet with PBS-CaCl2 (without FCS) to achieve a concentration not lower than 10×10^6 cells/ml. Prepare an adequate dilution to evaluate the cell concentration and count the cells. 4) Separate the volume of cells needed to be loaded (for example […] for 20 samples) in a 50 ml Falcon tube. Fill up with PBS-CaCl2 to 900 μl for 107 cells. 5) Prepare in the dark a 1:1 mix of FLUO-4 (1 mM)+Pluronic F-127 (20%). 5 μl of Fluo-4 are needed per 107 cells. 6) Prepare a 1/10 dilution of this mix with PBS-CaCl2 (in the dark; for example 5 μl Fluo-4+5 μl F-127 completed to 100 μl). 7) Add the dye solution to the cells. […] 8) Incubate the sample for 30 minutes in a cell incubator (37° C., 5% CO2). Mix from time to time. 9) During this time prepare the adequate test compound dilution in PBS-CaCl2 (with 10% FCS). The solution should be 10 times more concentrated than the desired final concentration. Vortex each dilution. Prepare also the antibody dilutions: anti-CD3 (1/200) and GAM (1/25). 10) Label FACS tubes and distribute in the corresponding tube 30 μl of the compound dilution or only buffer for the control tubes. 11) After 30 minutes of incubation wash the cells twice in PBS-CaCl2 (with 10% FCS). During the washing steps make sure that the flow cytometer is already “ON” in order to warm the laser. 12) Resuspend the cell pellet in PBS-CaCl2 (with 10% FCS) at a concentration of 1.5×10^6 cells/ml. 13) Distribute 300 μl of cell suspension into the FACS tubes and mix gently. The compound incubation is starting. Keep samples at room temperature in the dark. 14) Open the settings of the cytometer. It is advised to have a template ready which is used for all measurements. Settings of the machine should also be the same from one experiment to the other which permits to evaluate the reproducibility of the cell preparation. 15) In Setup modus control your cell preparation on the cytometer. Cells should fit in the pre-defined gates. 16) During the compound incubation time, check also that cells are responding to the anti-CD3 activation as expected. Set a timer at 8 sec. Add 6 μl of anti-CD3 dilution (0.2 μg/ml final) and mix gently. Add 1 μl of GAM dilution (0.75 μg/ml final) and mix gently. Incubate the samples in water bath at 37° C. while starting timer. After 8 seconds of incubation, acquire data at medium speed for 200 seconds. A clear increase of fluorescence should appear after 1 minute. 17) Make sure that the cells rest and equilibrate at room temperature 15 minutes before FACS data acquisition 18) Data acquisition: Samples to be compared should be measured consecutively. 19) For a better reproducibility, make sure that data for the loaded cells are acquired within 2 hours. […]"}},
  "data": [
    {"compound": "COc1cc(Nc2ncc(F)c(Nc3ccc(N4CCOCC4)cc3NS(N)(=O)=O)n2)cc(OC)c1OC", "note": "[Example 35, N-(2-(5-Fluoro-2-(3,4,5-trimethoxyphenylamino)pyrimidin-4-ylamino)-5-morpholinophenyl)sulfamide]", "values": [
      {"measurement": "IC50", "setting": "ZAP-70", "value": "< 1000", "unit": "nM"},
      {"measurement": "IC50", "setting": "Jurkat cells", "value": "< 1000", "unit": "nM"}
    ]},
    {"compound": "COc1cc(Nc2nccc(Nc3ccccc3NS(N)(=O)=O)n2)cc(OC)c1OC", "note": "[Example 23, N-(2-(2-(3,4,5-trimethoxyphenylamino)pyrimidin-4-ylamino)phenyl)sulfamide]", "values": [
      {"measurement": "IC50", "setting": "ZAP-70", "value": "< 1000", "unit": "nM"},
      {"measurement": "IC50", "setting": "Jurkat cells", "value": "< 1000", "unit": "nM"}
    ]},
    {"compound": "COc1cc(Nc2ncc(F)c(Nc3cc(F)ccc3NS(N)(=O)=O)n2)cc(OC)c1OC", "note": "[Example 37, N-(4-fluoro-2-(5-fluoro-2-(3,4,5-trimethoxyphenylamino)pyrimidin-4-ylamino)phenyl)sulfamide]", "values": [
      {"measurement": "IC50", "setting": "ZAP-70", "value": "< 1000", "unit": "nM"},
      {"measurement": "IC50", "setting": "Jurkat cells", "value": "< 1000", "unit": "nM"}
    ]},
    {"compound": "COc1cc(Nc2ncc(F)c(Nc3cccc(C)c3NS(N)(=O)=O)n2)cc(OC)c1OC", "note": "[Example 30, N-(2-(5-fluoro-2-(3,4,5-trimethoxyphenylamino)pyrimidin-4-ylamino)-6-methylphenyl)sulfamide]", "values": [
      {"measurement": "IC50", "setting": "ZAP-70", "value": "< 100", "unit": "nM"},
      {"measurement": "IC50", "setting": "Jurkat cells", "value": "< 100", "unit": "nM"}
    ]},
    {"compound": "COc1cc(Nc2ncc(F)c(Nc3ccc(C)c(C)c3NS(N)(=O)=O)n2)cc(OC)c1OC", "note": "[Example 31, N-(6-(5-fluoro-2-(3,4,5-trimethoxyphenylamino)pyrimidin-4-ylamino)-2,3-dimethylphenyl)sulfamide]", "values": [
      {"measurement": "IC50", "setting": "ZAP-70", "value": "< 1000", "unit": "nM"},
      {"measurement": "IC50", "setting": "Jurkat cells", "value": "< 1000", "unit": "nM"}
    ]},
    {"compound": "COCCNS(=O)(=O)Nc1ccccc1Nc1nc(Nc2cc(OC)c(OC)c(OC)c2)ncc1F", "note": "[Example 15, N-(2-(5-fluoro-2-(3,4,5-trimethoxyphenylamino)pyrimidin-4-ylamino)phenyl)-N′-(2-methoxyethyl)sulfamide]", "values": [
      {"measurement": "IC50", "setting": "ZAP-70", "value": "< 50000", "unit": "nM"},
      {"measurement": "IC50", "setting": "Jurkat cells", "value": "< 1000", "unit": "nM"}
    ]},
    {"compound": "COc1cc(Nc2ncc(F)c(Nc3ccccc3NS(=O)(=O)NCC3CC3)n2)cc(OC)c1OC", "note": "[Example 12, N-(2-(5-fluoro-2-(3,4,5-trimethoxyphenylamino)pyrimidin-4-ylamino)phenyl)-N′-cyclopropylmethylsulfamide]", "values": [
      {"measurement": "IC50", "setting": "ZAP-70", "value": "< 50000", "unit": "nM"},
      {"measurement": "IC50", "setting": "Jurkat cells", "value": "< 1000", "unit": "nM"}
    ]}
  ]
}
